Measured values published in PubChem BioAssay (NCI).
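Cultured in 96-well plates, cells were exposed to test compound for 48 hours across five concentrations. At the GI50, growth is halved. Definition used: TGI = concentration required for complete inhibition of growth.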

Experiments:
Experiment in all cases: NCI tumour cell line growth inhibition, 48 h
[1] = test system: SNB-75 CNS
[2] = test system: SNB-19 CNS
[3] = test system: SF-268 CNS
[4] = test system: CAKI-1 renal
[5] = test system: HCC-2998 colon
[6] = test system: BT-549 breast
[7] = test system: COLO 205 colon
[8] = test system: SF-295 CNS
[9] = test system: IGROV1 ovarian
[10] = test system: HT29 colon
[11] = test system: OVCAR-3 ovarian
[12] = test system: HCT-15 colon
[13] = test system: HOP-92 NSCLC
[14] = test system: M14 melanoma
[15] = test system: T-47D breast
[16] = test system: DU-145 prostate
[17] = test system: HCT-116 colon
[18] = test system: K-562 leukemia
[19] = test system: UACC-62 melanoma
[20] = test system: SK-OV-3 ovarian
[21] = test system: MALME-3M melanoma
[22] = test system: ACHN renal
[23] = test system: KM12 colon
[24] = test system: NCI-H522 lung
[25] = test system: OVCAR-5 ovarian
[26] = test system: NCI-H460 lung
[27] = test system: U251 CNS
[28] = test system: NCI-H226 lung
[29] = test system: RPMI-8226 leukemia
[30] = test system: RXF 393 renal
[31] = test system: LOX IMVI melanoma
[32] = test system: HL-60(TB) leukemia
[33] = test system: UACC-257 melanoma
[34] = test system: 786-0 renal
[35] = test system: MCF7 breast
[36] = test system: PC-3 prostate
[37] = test system: SK-MEL-2 melanoma
[38] = test system: SW-620 colon
[39] = test system: MDA-MB-435
[40] = test system: SR leukemia
[41] = test system: SK-MEL-5 melanoma
[42] = test system: NCI/ADR-RES ovarian
[43] = test system: SN12C renal
[44] = test system: A498 renal
[45] = test system: HOP-62 NSCLC
[46] = test system: A549 NSCLC
[47] = test system: SK-MEL-28 melanoma
[48] = test system: SF-539 CNS
[49] = test system: MOLT-4 leukemia
[50] = test system: HS 578T breast
[51] = test system: UO-31 renal
[52] = test system: OVCAR-4 ovarian
[53] = test system: TK-10 renal
[54] = test system: NCI-H23 lung
[55] = test system: MDA-MB-231 breast
[56] = test system: OVCAR-8 ovarian

`CC12CCC(O)CC1CCC1C2CCC2(C)C(C3=CC(=O)OC3)CCC12` (stereo not given) gave a GI50 [1] of 6.9 µM, a TGI [1] of 21.2 µM and a GI50 [2] of 14.2 µM. For the same molecule, the TGI [2] was over 100 µM, the GI50 [3] was 5.17 µM and the TGI [3] was over 41.8 µM. For the same molecule, the GI50 [4] was over 55.7 µM, the TGI [4] was over 100 µM and the GI50 [5] was over 100 µM. It also gave a TGI [5] of over 100 µM, a GI50 [6] of 11.2 µM and a TGI [6] of over 95.3 µM. The GI50 [7] was over 100 µM, the TGI [7] was over 100 µM and the GI50 [8] was 10.7 µM. The TGI [8] was 27.4 µM, the GI50 [9] was 20.5 µM and the TGI [9] was over 71 µM. It also gave a GI50 [10] of over 100 µM, a TGI [10] of over 100 µM and a GI50 [11] of over 86.6 µM. For the same molecule, the TGI [11] was over 100 µM, the GI50 [12] was over 100 µM and the TGI [12] was over 100 µM. It also gave a GI50 [13] of 5.02 µM, a TGI [13] of 29.5 µM and a GI50 [14] of over 100 µM. The TGI [14] was over 100 µM, the GI50 [15] was 22.3 µM and the TGI [15] was over 100 µM. It also gave a GI50 [16] of 42.4 µM, a TGI [16] of over 100 µM and a GI50 [17] of 25.5 µM. The TGI [17] was over 100 µM, the GI50 [18] was over 100 µM and the TGI [18] was over 100 µM. For the same molecule, the GI50 [19] was 0.522 µM, the GI50 [20] was 21.8 µM and the TGI [20] was over 61.5 µM. The GI50 [21] was 26.3 µM, the TGI [21] was over 90.1 µM and the GI50 [22] was 26.4 µM. It also gave a TGI [22] of over 91.3 µM, a GI50 [23] of over 100 µM and a TGI [23] of over 100 µM. It also gave a GI50 [24] of 0.686 µM, a TGI [24] of 4.44 µM and a GI50 [25] of over 100 µM. It also gave a TGI [25] of over 100 µM, a GI50 [26] of 0.493 µM and a TGI [26] of over 100 µM. For the same molecule, the GI50 [27] was 2.62 µM, the TGI [27] was 10.1 µM and the GI50 [28] was over 33.6 µM. For the same molecule, the TGI [28] was over 100 µM, the GI50 [29] was 1.27 µM and the TGI [29] was over 100 µM. For the same molecule, the GI50 [30] was 7.76 µM, the TGI [30] was 42.5 µM and the GI50 [31] was 0.3 µM. For the same molecule, the TGI [31] was over 100 µM, the GI50 [32] was over 100 µM and the TGI [32] was over 100 µM. It also gave a GI50 [33] of over 100 µM, a TGI [33] of over 100 µM and a GI50 [34] of 22 µM. It also gave a TGI [34] of 65.2 µM, a GI50 [35] of over 100 µM and a TGI [35] of over 100 µM. For the same molecule, the GI50 [36] was over 67.4 µM, the TGI [36] was over 100 µM and the GI50 [37] was 7.49 µM. For the same molecule, the TGI [37] was 29.8 µM, the GI50 [38] was over 100 µM and the TGI [38] was over 100 µM. For the same molecule, the GI50 [39] was over 100 µM, the TGI [39] was over 100 µM and the GI50 [40] was 0.375 µM. For the same molecule, the TGI [40] was over 100 µM, the GI50 [41] was over 100 µM and the TGI [41] was over 100 µM. For the same molecule, the GI50 [42] was 27 µM, the TGI [42] was over 100 µM and the GI50 [43] was 53.8 µM. It also gave a TGI [43] of over 100 µM, a GI50 [44] of 1.5 µM and a TGI [44] of 10.4 µM. The GI50 [45] was 9.53 µM, the TGI [45] was 44.9 µM and the GI50 [46] was 21.8 µM. For the same molecule, the TGI [46] was over 100 µM, the GI50 [47] was 28.2 µM and the TGI [47] was over 100 µM. It also gave a GI50 [48] of 21.9 µM, a TGI [48] of over 100 µM and a GI50 [49] of over 100 µM. It also gave a TGI [49] of over 100 µM, a GI50 [50] of 3.48 µM and a TGI [50] of over 48.5 µM. For the same molecule, the GI50 [51] was over 100 µM, the TGI [51] was over 100 µM and the TGI [52] was over 73.2 µM. It also gave a GI50 [53] of 19.6 µM, a TGI [53] of 66.4 µM and a GI50 [54] of 5.81 µM. The TGI [54] was over 64.6 µM, the GI50 [55] was 0.636 µM and the TGI [55] was 8.49 µM. The GI50 [56] was 16.9 µM and the TGI [56] was over 100 µM.
